The values that follow come from patent US20250320205A1, “STAT6 DEGRADERS” (Gilead Sciences, Inc., priority 2024, published 2025).

Molecules are shown by their SMILES.

In one experiment the target is T1, STAT6 (Homo sapiens, UniProt P42226).
T1 construct: These cells express endogenous STAT6; host or cells: HeLa LgBiT clone 4.14 (CRISPR knock-in of HiBiT into the endogenous STAT6 gene)
T1 sequence (P42226 1-847): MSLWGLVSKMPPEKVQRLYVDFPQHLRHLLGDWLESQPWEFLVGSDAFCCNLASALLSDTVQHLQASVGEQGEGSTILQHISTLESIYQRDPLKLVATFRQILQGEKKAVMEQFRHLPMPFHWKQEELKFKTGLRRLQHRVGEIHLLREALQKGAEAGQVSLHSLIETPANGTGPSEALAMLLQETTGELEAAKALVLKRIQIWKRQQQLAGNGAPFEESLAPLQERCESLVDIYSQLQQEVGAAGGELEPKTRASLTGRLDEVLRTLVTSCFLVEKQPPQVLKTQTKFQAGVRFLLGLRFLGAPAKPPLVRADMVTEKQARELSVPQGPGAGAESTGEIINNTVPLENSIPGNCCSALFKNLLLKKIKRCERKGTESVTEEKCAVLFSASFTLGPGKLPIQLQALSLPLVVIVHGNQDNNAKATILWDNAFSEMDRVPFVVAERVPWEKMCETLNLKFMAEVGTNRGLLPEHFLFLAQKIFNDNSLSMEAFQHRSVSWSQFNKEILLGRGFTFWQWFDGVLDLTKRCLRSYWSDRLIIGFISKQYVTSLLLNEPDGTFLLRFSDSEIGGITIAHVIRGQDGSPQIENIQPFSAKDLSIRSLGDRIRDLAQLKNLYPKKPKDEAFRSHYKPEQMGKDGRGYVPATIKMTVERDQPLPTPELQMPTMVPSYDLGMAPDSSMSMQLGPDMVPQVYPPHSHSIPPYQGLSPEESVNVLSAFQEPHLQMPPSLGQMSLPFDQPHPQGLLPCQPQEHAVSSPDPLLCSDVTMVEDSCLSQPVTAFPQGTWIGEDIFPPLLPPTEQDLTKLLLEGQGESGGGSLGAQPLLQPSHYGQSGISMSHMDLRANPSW
The experiment in a line: STAT6 Degrader Assay (HiBiT based, HeLa LgBiT clone 4.14 cells). The experiment is classed as cell-based. The settings on record: geometric mean across assay runs and compound batches; DC50 provided for test compounds with >80% Emax; read-out: STAT6 degradation DC50. In a few lines:
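DC50 (nM) comes from NanoBiT luminescence of HiBiT-knock-in STAT6 in HeLa LgBiT clone 4.14 cells, treated 4-24 h at 37° C. Luminescence reflects non-degraded STAT6, with 50 μM terfenadine wells taken as full degradation.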

Experiment [1] relates to Eotaxin-3 (CCL26) release. Description: Human Whole Blood Eotaxin-3 Assay (IL-4 stimulated). The experiment is classed as cell-based. The settings on record: Homo sapiens; geometric mean across assay runs and compound batches; EC50 provided for test compounds with >80% Emax. The procedure, abridged:
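Lithium-heparin human whole blood preincubated 2 h at 37 °C with compounds (4-fold dilutions, triplicate, 0.5% DMSO final). Then stimulated with 400 pM final recombinant human IL-4 for 48 h. Eotaxin-3 in supernatant quantified by MSD immunoassay.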

For the compound `CNc1ccn(-c2ccnc3c2cc([C@@H](C)N2CCC(c4c(F)cc(C(=O)N5CCn6nc(CN7CCC(c8ccc(NC9CCC(=O)NC9=O)cc8F)CC7)cc6C5)cc4F)CC2)n3C)c(=O)c1` (stereo partly drawn) [Example 2g110, 3-((4-(1-((5-(3,5-difluoro-4-(1-((R)-1-(1-methyl-4-(4-(methylamino)-2-oxopyridin-1(2H)-yl)-1H-pyrrolo[2,3-b]pyridin-2-yl)ethyl)piperidin-4-yl)benzoyl)-4,5,6,7-tetra-hydropyrazolo[1,5-a]pyrazin-2-yl)methyl)piperidin-4-yl)-3-fluorophenyl)amino)piperi-dine-2,6-dione], the DC50 at STAT6 was 10.5 nM. In addition, the EC50 in experiment [1] stood at 23.3 nM.
For `CNc1ccn(-c2ccnc3c2cc([C@H](C)N2CC=C(c4c(C)cc(C(=O)N5CCn6nc(CN7CCC(c8ccc(NC9CCC(=O)NC9=O)c(OC)c8)CC7)cc6C5)cc4F)CC2)n3C)c(=O)c1` (stereo partly drawn) [Example 2g116, 3-((4-(1-((5-(3-fluoro-5-meth-yl-4-(1-((S)-1-(1-methyl-4-(4-(methylamino)-2-oxopyridin-1(2H)-yl)-1H-pyrrolo[2,3-b]pyridin-2-yl)ethyl)-1,2,3,6-tetrahydropyridin-4-yl)benzo-yl)-4,5,6,7-tetrahydropyrazolo [1,5-a]pyrazin-2-l)methyl)-piperidin-4-yl)-2-methoxy-phenyl)amino)-piperidine-2,6-dione], in that order: 0.3 nM and 0.5 nM.
For `CNc1cc(=O)n(-c2ccnc3c2cc([C@H](C)N2CC=C(c4c(F)cc(C(=O)N5CCC(CN6CCN(c7ccc(N[C@@H]8CCC(=O)NC8=O)cc7F)CC6)CC5)cc4F)CC2)n3C)cc1F` (single isomer, unassigned) [Example 2g121], the 50% degradation concentration (DC50) at STAT6 came out at 9.6 nM. Further, in experiment [1], the response was half-maximal at 30.9 nM (EC50).
On to `CNc1cc(=O)n(-c2ccnc3c2cc([C@H](C)N2CC=C(c4c(C)cc(C(=O)N5CCn6nc(CN7CCC(c8ccc(NC9CCC(=O)NC9=O)c(OC)c8)CC7)cc6C5)cc4F)CC2)n3C)cc1F` (stereo partly drawn) [Example 2g90, 3-((4-(1-((5-(3-fluoro-4-(1-((S)-1-(4-(5-fluoro-4-(meth-ylamino)-2-oxopyridin-1(2H)-yl)-1-methyl-1H-pyrrolo[2,3-b]pyridin-2-yl)ethyl)-1,2,3,6-tetrahydropyridin-4-yl)-5-methylbenzoyl)-4,5,6,7-tetra-hydropyrazolo[1,5-a]pyrazin-2-yl)methyl)piperidin-4-yl)-2-methoxyphenyl)amino)-piperidine-2,6-dione], for which the DC50 on STAT6 was 0.2 nM. For the same compound, in experiment [1], the 50% effective concentration (EC50) is 0.6 nM.
In the case of `CNc1ccn(-c2ccnc3c2cc(CN2CCC(c4c(F)cc(C(=O)N5CCC(CN6CCN(c7ccc(NC8CCC(=O)NC8=O)cc7F)CC6)CC5)cc4F)CC2)n3C)c(=O)c1` (centres unmarked) [Example 2g107, 3-((4-(4-((1-(3,5-difluoro-4-(1-((1-methyl-4-(4-(methyl-amino)-2-oxopyridin-1(2H)-yl)-1H-pyrrolo[2,3-b]pyridin-2-yl)methyl)piperidin-4-yl)-benzoyl)piperidin-4-yl)meth-yl)piperazin-1-yl)-3-fluoro-phenyl)amino)piperidine-2,6-dione], on STAT6, the DC50 worked out at 25.3 nM. This compound also yielded an EC50 in experiment [1] of 26.8 nM.
Consider `CNc1ccn(-c2ccnc3c2cc([C@H](C)N2CC=C(c4c(C)cc(C(=O)N5CCC(CN6CCN(c7ncc(N[C@H]8CCC(=O)NC8=O)cc7F)C[C@H]6C)CC5)cc4F)CC2)n3C)c(=O)c1` (single isomer, unassigned) [Example 2g114], for which, on STAT6, the DC50 came out at 5.8 nM. The 50% effective concentration (EC50) in experiment [1] worked out at 6.5 nM.
Consider `CNc1cc(=O)n(-c2ccnc3c2cc(CN2CCC(c4c(F)cc(C(=O)N5CCn6nc(CN7CCC(c8ccc(NC9CCC(=O)NC9=O)c(OC)c8)CC7)cc6C5)cc4F)CC2)n3C)cc1F` (centres unmarked) [Example 2g122, 3-((4-(1-((5-(3,5-difluoro-4-(1-((4-(5-fluoro-4-(methyl-amino)-2-oxopyridin-1(2H)-yl)-1-methyl-1H-pyrrolo[2,3-b]pyridin-2-yl)methyl)piperi-din-4-yl)benzoyl)-4,5,6,7-tetrahydropyrazolo[1,5-a]pyr-azin-2-yl)methyl)piperidin-4-yl)-2-methoxyphenyl)amino)-piperidine-2,6-dione], for which the 50% degradation concentration (DC50) at STAT6 is 1.8 nM. Moreover, the concentration for a half-maximal effect (EC50) in experiment [1] amounted to 3.6 nM.
